Values of other authors, collected in patent US10471038B2, “Inhibitor of muscle damage or muscle fatigue” ([…] LABORATORY, CO., LTD., priority 2015, dated 2019).

Tested on: calpain
Settings: mdx mice, intramuscular injection

In the case of `CC(=O)N[C@@H](CC(C)C)C(=O)N[C@@H](CC(C)C)C(=O)N[C@H](C=O)CCCNC(=N)N` [leupeptin], the “activation of calpain in muscle tissue and muscle breakdown” value is given as “inhibited”.
